Laboratory results as given in the NIST ThermoML archive (doi:10.1021/acs.jced.6b00121).

Assay: xn = mol fraction of the nth substance listed
Details: 100 kPa, Liquid; for viscosity: Falling or rolling sphere viscometry; for mass density: Vibrating tube method

CCCCCCCCCCC [undecane] + CCCO
Details | mass density [kg/m3] | viscosity [mPa·s]
283.15 K, x1 = 0.1003 | 794.54 | 2.378
283.15 K, x1 = 0.2009 | 782.93 | 2.098
283.15 K, x1 = 0.3004 | 774.29 | 1.867
283.15 K, x1 = 0.3997 | 767.69 | 1.722
283.15 K, x1 = 0.4998 | 762.46 | 1.585
283.15 K, x1 = 0.6005 | 758.08 | 1.482
283.15 K, x1 = 0.6974 | 754.68 | 1.412
283.15 K, x1 = 0.8 | 751.72 | 1.371
283.15 K, x1 = 0.8963 | 749.45 | 1.356
283.15 K, x1 = 1 | 747.78 | 1.371
288.15 K, x1 = 0.1003 | 790.63 | 2.104
288.15 K, x1 = 0.2009 | 779.03 | 1.861
288.15 K, x1 = 0.3004 | 770.41 | 1.69
288.15 K, x1 = 0.3997 | 763.82 | 1.539
288.15 K, x1 = 0.4998 | 758.6 | 1.426
288.15 K, x1 = 0.6005 | 754.26 | 1.338
288.15 K, x1 = 0.6974 | 750.86 | 1.28
288.15 K, x1 = 0.8 | 747.96 | 1.246
288.15 K, x1 = 0.8963 | 745.71 | 1.235
288.15 K, x1 = 1 | 744.06 | 1.249
293.15 K, x1 = 0.1003 | 786.69 | 1.865
293.15 K, x1 = 0.2009 | 775.1 | 1.656
293.15 K, x1 = 0.3004 | 766.5 | 1.515
293.15 K, x1 = 0.3997 | 759.92 | 1.382
293.15 K, x1 = 0.4998 | 754.73 | 1.286
293.15 K, x1 = 0.6005 | 750.41 | 1.214
293.15 K, x1 = 0.6974 | 747.04 | 1.165
293.15 K, x1 = 0.8 | 744.17 | 1.138
293.15 K, x1 = 0.8963 | 741.96 | 1.13
293.15 K, x1 = 1 | 740.35 | 1.145
298.15 K, x1 = 0.1003 | 782.72 | 1.655
298.15 K, x1 = 0.2009 | 771.14 | 1.481
298.15 K, x1 = 0.3004 | 762.56 | 1.357
298.15 K, x1 = 0.3997 | 756 | 1.246
298.15 K, x1 = 0.4998 | 750.83 | 1.166
298.15 K, x1 = 0.6005 | 746.54 | 1.106
298.15 K, x1 = 0.6974 | 743.2 | 1.065
298.15 K, x1 = 0.8 | 740.37 | 1.044
298.15 K, x1 = 0.8963 | 738.2 | 1.038
298.15 K, x1 = 1 | 736.64 | 1.062
303.15 K, x1 = 0.1003 | 778.73 | 1.487
303.15 K, x1 = 0.2009 | 767.15 | 1.332
303.15 K, x1 = 0.3004 | 758.59 | 1.223
303.15 K, x1 = 0.3997 | 752.04 | 1.129
303.15 K, x1 = 0.4998 | 746.9 | 1.061
303.15 K, x1 = 0.6005 | 742.64 | 1.012
303.15 K, x1 = 0.6974 | 739.34 | 0.978
303.15 K, x1 = 0.8 | 736.55 | 0.961
303.15 K, x1 = 0.8963 | 734.41 | 0.957
303.15 K, x1 = 1 | 732.93 | 0.982
308.15 K, x1 = 0.1003 | 774.69 | 1.333
308.15 K, x1 = 0.2009 | 763.12 | 1.196
308.15 K, x1 = 0.3004 | 754.57 | 1.106
308.15 K, x1 = 0.3997 | 748.05 | 1.025
308.15 K, x1 = 0.4998 | 742.93 | 0.968
308.15 K, x1 = 0.6005 | 738.71 | 0.929
308.15 K, x1 = 0.6974 | 735.45 | 0.901
308.15 K, x1 = 0.8 | 732.7 | 0.886
308.15 K, x1 = 0.8963 | 730.61 | 0.885
308.15 K, x1 = 1 | 729.23 | 0.91
313.15 K, x1 = 0.1003 | 770.6 | 1.198
313.15 K, x1 = 0.2009 | 759.04 | 1.08
313.15 K, x1 = 0.3004 | 750.52 | 1.004
313.15 K, x1 = 0.3997 | 744.02 | 0.935
313.15 K, x1 = 0.4998 | 738.93 | 0.888
313.15 K, x1 = 0.6005 | 734.75 | 0.855
313.15 K, x1 = 0.6974 | 731.52 | 0.833
313.15 K, x1 = 0.8 | 728.83 | 0.821
313.15 K, x1 = 0.8963 | 726.79 | 0.822
313.15 K, x1 = 1 | 725.53 | 0.847
318.15 K, x1 = 0.1003 | 766.466 | 1.079
318.15 K, x1 = 0.2009 | 754.911 | 0.979
318.15 K, x1 = 0.3004 | 746.411 | 0.913
318.15 K, x1 = 0.3997 | 739.944 | 0.856
318.15 K, x1 = 0.4998 | 734.891 | 0.816
318.15 K, x1 = 0.6005 | 730.749 | 0.789
318.15 K, x1 = 0.6974 | 727.572 | 0.772
318.15 K, x1 = 0.8 | 724.934 | 0.763
318.15 K, x1 = 0.8963 | 722.953 | 0.765
318.15 K, x1 = 1 | 721.818 | 0.79
323.15 K, x1 = 0.1003 | 762.28 | 0.976
323.15 K, x1 = 0.2009 | 750.73 | 0.889
323.15 K, x1 = 0.3004 | 742.26 | 0.828
323.15 K, x1 = 0.3997 | 735.82 | 0.786
323.15 K, x1 = 0.4998 | 730.81 | 0.754
323.15 K, x1 = 0.6005 | 726.72 | 0.732
323.15 K, x1 = 0.6974 | 723.59 | 0.717
323.15 K, x1 = 0.8 | 721.01 | 0.712
323.15 K, x1 = 0.8963 | 719.09 | 0.715
323.15 K, x1 = 1 | 718.11 | 0.74
328.15 K, x1 = 0.1003 | 758.02 | 0.885
328.15 K, x1 = 0.2009 | 746.49 | 0.811
328.15 K, x1 = 0.3004 | 738.04 | 0.76
328.15 K, x1 = 0.3997 | 731.64 | 0.723
328.15 K, x1 = 0.4998 | 726.68 | 0.698
328.15 K, x1 = 0.6005 | 722.64 | 0.681
328.15 K, x1 = 0.6974 | 719.57 | 0.669
328.15 K, x1 = 0.8 | 717.05 | 0.665
328.15 K, x1 = 0.8963 | 715.21 | 0.669
328.15 K, x1 = 1 | 714.39 | 0.692
333.15 K, x1 = 0.1003 | 753.7 | 0.805
333.15 K, x1 = 0.2009 | 742.18 | 0.741
333.15 K, x1 = 0.3004 | 733.76 | 0.698
333.15 K, x1 = 0.3997 | 727.41 | 0.668
333.15 K, x1 = 0.4998 | 722.5 | 0.648
333.15 K, x1 = 0.6005 | 718.52 | 0.634
333.15 K, x1 = 0.6974 | 715.51 | 0.625
333.15 K, x1 = 0.8 | 713.06 | 0.623
333.15 K, x1 = 0.8963 | 711.3 | 0.628
333.15 K, x1 = 1 | 710.68 | 0.651
338.15 K, x1 = 0.1003 | 749.3 | 0.734
338.15 K, x1 = 0.2009 | 737.8 | 0.68
338.15 K, x1 = 0.3004 | 729.43 | 0.645
338.15 K, x1 = 0.3997 | 723.12 | 0.619
338.15 K, x1 = 0.4998 | 718.27 | 0.604
338.15 K, x1 = 0.6005 | 714.36 | 0.593
338.15 K, x1 = 0.6974 | 711.41 | 0.586
338.15 K, x1 = 0.8 | 709.04 | 0.586
338.15 K, x1 = 0.8963 | 707.37 | 0.592
338.15 K, x1 = 1 | 706.95 | 0.615
343.15 K, x1 = 0.1003 | 744.8 | 0.672
343.15 K, x1 = 0.2009 | 733.33 | 0.626
343.15 K, x1 = 0.3004 | 725.01 | 0.596
343.15 K, x1 = 0.3997 | 718.77 | 0.576
343.15 K, x1 = 0.4998 | 713.98 | 0.563
343.15 K, x1 = 0.6005 | 710.14 | 0.555
343.15 K, x1 = 0.6974 | 707.27 | 0.551
343.15 K, x1 = 0.8 | 704.99 | 0.552
343.15 K, x1 = 0.8963 | 703.43 | 0.558
343.15 K, x1 = 1 | 703.22 | 0.58
348.15 K, x1 = 0.1003 | 740.24 | 0.617
348.15 K, x1 = 0.2009 | 728.8 | 0.578
348.15 K, x1 = 0.3004 | 720.53 | 0.553
348.15 K, x1 = 0.3997 | 714.34 | 0.537
348.15 K, x1 = 0.4998 | 709.64 | 0.527
348.15 K, x1 = 0.6005 | 705.88 | 0.522
348.15 K, x1 = 0.6974 | 703.09 | 0.519
348.15 K, x1 = 0.8 | 700.9 | 0.521
348.15 K, x1 = 0.8963 | 699.45 | 0.528
348.15 K, x1 = 1 | 699.47 | 0.549
353.15 K, x1 = 0.1003 | 735.57 | 0.568
353.15 K, x1 = 0.2009 | 724.18 | 0.535
353.15 K, x1 = 0.3004 | 715.97 | 0.515
353.15 K, x1 = 0.3997 | 709.86 | 0.502
353.15 K, x1 = 0.4998 | 705.23 | 0.495
353.15 K, x1 = 0.6005 | 701.57 | 0.492
353.15 K, x1 = 0.6974 | 698.86 | 0.49
353.15 K, x1 = 0.8 | 696.77 | 0.492
353.15 K, x1 = 0.8963 | 695.46 | 0.501
353.15 K, x1 = 1 | 695.72 | 0.522
358.15 K, x1 = 0.1003 | 730.81 | 0.525
358.15 K, x1 = 0.2009 | 719.45 | 0.497
358.15 K, x1 = 0.3004 | 711.32 | 0.481
358.15 K, x1 = 0.3997 | 705.29 | 0.471
358.15 K, x1 = 0.4998 | 700.75 | 0.466
358.15 K, x1 = 0.6005 | 697.19 | 0.465
358.15 K, x1 = 0.6974 | 694.58 | 0.463
358.15 K, x1 = 0.8 | 692.62 | 0.467
358.15 K, x1 = 0.8963 | 691.44 | 0.476
358.15 K, x1 = 1 | 691.96 | 0.497
363.15 K, x1 = 0.1003 | 725.93 | 0.4864
363.15 K, x1 = 0.2009 | 714.64 | 0.4635
363.15 K, x1 = 0.3004 | 706.59 | 0.4506
363.15 K, x1 = 0.3997 | 700.67 | 0.443
363.15 K, x1 = 0.4998 | 696.22 | 0.4401
363.15 K, x1 = 0.6005 | 692.77 | 0.4396
363.15 K, x1 = 0.6974 | 690.27 | 0.4398
363.15 K, x1 = 0.8 | 688.42 | 0.4438
363.15 K, x1 = 0.8963 | 687.41 | 0.4531
363.15 K, x1 = 1 | 688.18 | 0.475
